Drawing on ChEMBL document CHEMBL3507680, “University of Dundee, Gates Library screen for HepG2 cell viability”, this text covers cytotoxicity for 104 compounds.

The nature of this data set: Human HepG2 cell viability assay in 384 well format. The class given is toxicity, cell-based. Set-up: dose 125 nL, time 70.5 hour; concentration not given beside the values. To be noted: HepG2 cells, read-out: Inhibition.
In the case of `Cc1cc(NCC(=O)N(C)C)c(C(N)=O)cc1F`, the cytotoxicity at 70.5 h was -0.553%. With `CC(C)(C)c1nccc(N2CCN(C3CCS(=O)(=O)C3)CC2)n1` (centres undefined) the figure was -0.27%; with `CCN1CCN(CCC(=O)NC2CC(c3cccc(Cl)c3)C2)CC1` (centres undefined), 3.15%. In the case of `Cc1ccc(N2CCCC(NC(=O)CCc3ccccn3)C2=O)cc1` (centres undefined), the cytotoxicity at 70.5 h is 0.525%. The same measure for `Cc1ccc(N2CCCC(NC(=O)C(C)(C)C#N)C2=O)cc1` (centres undefined): 1.69%; for `CC(C)Cn1cnnc1C1CCCN1C(=O)c1cc2ccccn2c1` (centres undefined): 14.5%. As for `CS(=O)(=O)CCC(=O)NC1CC(c2ccccc2Cl)C1` (centres undefined), the cytotoxicity at 70.5 h stood at 2.56%. Turning to `COc1ccccc1C(=O)N1CCCC1c1nncn1CC(C)C` (centres undefined), the cytotoxicity at 70.5 h is -0.719%. Turning to `Cc1cc(NCC2CC(=O)Nc3ccccc32)nc(C)n1` (centres undefined), the cytotoxicity at 70.5 h is -1.89%.

Take `Cc1nc(C)c(C)c(N2CCC(NCCOc3ccccc3)CC2)n1`: the cytotoxicity at 70.5 h is 17.8%. On to `Cc1ncc2c(n1)CN(C(C(N)=O)c1ccc(F)cc1)CC2` (centres undefined), for which the cytotoxicity at 70.5 h is -2.82%. Take `COc1ccc(N(C(=O)c2cnc(C)cn2)C(C)C)cc1F`: the cytotoxicity at 70.5 h is -3.96%. In the case of `Cc1cnn(-c2cccc(N3CCN(c4cc(C)nc(C)n4)CC3)n2)c1`, the cytotoxicity at 70.5 h amounted to 15.5%. The same measure for `N#Cc1cnc2ccccc2c1N1CCN(C(=O)C2CCC2)CC1`: -1.5%.

Regarding `COc1ccc(N(C(=O)c2ccccn2)C(C)C)cc1F`, the cytotoxicity at 70.5 h is -3.02%. With `CNC(=O)CN(C)C(=O)Cc1csc(C(C)C)n1`, the cytotoxicity at 70.5 h is 0.629%. Turning to `COc1cccc2c1N(Cc1nc(C3CC3)no1)CCC2`, the cytotoxicity at 70.5 h was 5.14%. Take `CC(C)C(NC(=O)c1ccccc1F)C(=O)N1CCC2(CC1)OCCO2` (centres undefined): the cytotoxicity at 70.5 h is -1.01%. For the compound `COc1ccc2c(c1)C(=O)N(C)C1(CCN(CC=C(C)C)CC1)N2`, the cytotoxicity at 70.5 h is -2.27%. In the case of `COCc1ccccc1C(=O)N1CCn2c(nnc2C(C)C)C1`, the cytotoxicity at 70.5 h was -3.21%.

Consider `CC(C)C(O)CNC(=O)Nc1ccc(F)c(Cl)c1` (centres undefined), for which the cytotoxicity at 70.5 h is -0.302%.

On to `COc1ccccc1N1CCCC(Nc2nccnc2C#N)C1` (centres undefined), for which the cytotoxicity at 70.5 h is -6.29%. In the case of `N#Cc1nccnc1NC1CCN(c2ccccc2OC(F)F)C1` (centres undefined), the cytotoxicity at 70.5 h is -5.2%. On to `CCn1cc(C(=O)Nc2ccc(C)cc2C(=O)OC)cn1`, for which the cytotoxicity at 70.5 h stood at 16%. In the case of `CCn1cc(C(=O)Nc2ccc(C)cc2C(=O)NC)cn1`, the cytotoxicity at 70.5 h is -3.07%. `N#Cc1ccc(NCCC2CCN(CC(F)(F)F)CC2)nc1`: the cytotoxicity at 70.5 h is 2.24%. In the case of `FC(F)c1nnc2ccc(N3CCC4(CCOC4)C3)nn12` (centres undefined), the cytotoxicity at 70.5 h turned out to be 7.83%.

`COc1ccccc1S(=O)(=O)CCOC(C)C`: the cytotoxicity at 70.5 h is -3.27%.

In the case of `Cc1ccc(OCCN(C)Cc2cscn2)cc1`, the cytotoxicity at 70.5 h is -2.46%.

For the compound `COCCc1noc(CN2CCCc3cccc(OC)c32)n1`, the cytotoxicity at 70.5 h is -4.64%. With `COc1cccc(NC(=O)N(CCO)C2CCc3ccccc32)c1` (centres undefined) the figure was -0.598%; with `Cc1ccc(CCNC(=O)c2cccnc2)o1`, 30.2%; with `Cc1cccc(N(CCC(N)=O)C(=O)c2cnccn2)c1`, -12.9%. For the compound `CC(=O)N1Cc2ccccc2CC1C(=O)Nc1cc(C)ccn1` (centres undefined), the cytotoxicity at 70.5 h is -15.2%. With `CC(=O)N1Cc2ccccc2CC1C(=O)Nc1ccc(N(C)C)cn1` (centres undefined) the figure was -24.9%; with `CC(=O)c1cccc(NC(=O)N(CCO)C2CCc3ccccc32)c1` (centres undefined), 26.8%.

As to `O=C(Nc1cn[nH]c1)N(CCCO)C1CCc2ccccc21` (centres undefined), the cytotoxicity at 70.5 h was -4.28%. On to `Cc1cc(CNC(=O)N2CCOC(c3ccccc3Cl)C2)no1` (centres undefined), for which the cytotoxicity at 70.5 h is -7.66%. Consider `CN1CCN(C)C(CNc2c(C#N)cnc3ccc(Cl)cc23)C1` (centres undefined), for which the cytotoxicity at 70.5 h is -8.13%.

With `Cc1ccc(Br)cc1C(=O)Nc1cc(C(N)=O)n(C)c1`, the cytotoxicity at 70.5 h is -8.22%.

Consider `COCCC(=O)Nc1nc2c(OC)cc(F)cc2s1`, for which the cytotoxicity at 70.5 h is -4.65%. With `CCC1COCCN1C(=O)NCc1nccn1Cc1ccccc1` (centres undefined) the figure was -2.58%. Take `CC(C)Cn1ccnc1CNC(=O)N1CCCC1CN1CCOCC1` (centres undefined): the cytotoxicity at 70.5 h was -4.49%. For `CCC1c2ccccc2CCN1CCNS(C)(=O)=O` (centres undefined), the cytotoxicity at 70.5 h was -4.6%. For the compound `CCCC1c2ccccc2CCN1CCS(C)(=O)=O` (centres undefined), the cytotoxicity at 70.5 h is -3.74%.

With `CC(Cc1cccc(F)c1)NCc1cnc(N2CCN(C)CC2)nc1` (centres undefined), the cytotoxicity at 70.5 h came to 9.92%.

For the compound `CC(C)N(Cc1ccccn1)C(=O)CCC(=O)c1ccc(F)cc1F`, the cytotoxicity at 70.5 h was -14.3%. In the case of `CN(C)C(=O)CN1CCN(c2cc(N3CCCC3CO)ncn2)CC1` (centres undefined), the cytotoxicity at 70.5 h was -4.56%.

As for `CCc1nc(C2CCCN2Cc2ncc(C)c(OC)c2C)no1` (centres undefined), the cytotoxicity at 70.5 h is -5.08%. For `CN1CCN(C(=O)c2occc2CN2C(=O)Cc3ccccc32)CC1`, the cytotoxicity at 70.5 h came out at 16%.

`CCc1noc(CN(CCS(C)(=O)=O)C(C)(C)C)n1`: the cytotoxicity at 70.5 h was 20.2%. In the case of `COCCN1CCN(c2ccc(CN(C)C)cn2)CC1`, the cytotoxicity at 70.5 h is 16.1%. Regarding `CC(C)OCc1noc(C2CC=CC2)n1`, the cytotoxicity at 70.5 h was -6.7%. In the case of `O=C(c1cc(F)ccc1Br)N1CCN(C(=O)C2CC2)CC1`, the cytotoxicity at 70.5 h was 17.3%.

On to `O=C(c1ccc(=O)[nH]n1)N1CCC(CN2CCOCC2)CC1`, for which the cytotoxicity at 70.5 h was -9.25%. With `O=C(c1cnccn1)N1CCC(CN2CCOCC2)CC1` the figure was -7.46%; with `CC(C)c1noc(C(C)S(=O)(=O)CC(=O)N2CCCC2)n1` (centres undefined), 17.4%. In the case of `Cc1cc(C2CCCN2S(=O)(=O)c2cnn(C)c2)on1` (centres undefined), the cytotoxicity at 70.5 h is -6.62%. `O=C(c1ccccc1O)N1CCN(C(=O)C2CCC2)CC1`: the cytotoxicity at 70.5 h came out at 16.4%. For `CCCNC(=O)C1CCN(CC(O)c2ccc(C(F)(F)F)cc2)CC1` (centres undefined), the cytotoxicity at 70.5 h is -5.86%.

With `CC(C(=O)N1CCCCCC1)N1CCN(c2nccs2)CC1` (centres undefined), the cytotoxicity at 70.5 h is 19.7%. `CC(C(=O)N1CCCCC1)N1CCN(c2nccs2)CC1` (centres undefined): the cytotoxicity at 70.5 h is 2.12%. In the case of `CS(=O)(=O)Cc1ccc(C(=O)Nc2ccc3c(c2)C(=O)NC3)cc1`, the cytotoxicity at 70.5 h is -6.71%.

For the compound `CN(C)Cc1ccc(N2CCN(CCOCC(F)(F)F)CC2)nc1`, the cytotoxicity at 70.5 h came out at 17.7%. With `CC(C)OCCN1CCN(c2ccc(Cl)cn2)CC1` the figure was -6.76%.

As to `O=C1C(n2nnc(-c3cccs3)n2)CCN1CC(F)(F)F` (centres undefined), the cytotoxicity at 70.5 h is -7.6%. With `CCCOc1ccc(Cl)cc1C(=O)N1CCC(n2cncn2)CC1`, the cytotoxicity at 70.5 h worked out at 17.2%. Turning to `COc1ccc(C(NCc2cccc(C#N)c2)C2CC2)cc1` (centres undefined), the cytotoxicity at 70.5 h was -2.12%. Take `COC(=O)c1cccc(C(=O)N2CCN(C(=O)N(C)C)CC2(C)C)c1`: the cytotoxicity at 70.5 h was found to be 16.9%. For the compound `CN(C)C(=O)c1ccc(NCCNc2ccc3ccccc3n2)nc1`, the cytotoxicity at 70.5 h turned out to be 45.4%. `Cc1cnn(CC(C)NCCc2cccs2)c1` (centres undefined): the cytotoxicity at 70.5 h is 23.7%. Regarding `CS(=O)(=O)NCCc1cccc2cccnc12`, the cytotoxicity at 70.5 h was found to be 25.3%. Turning to `Cc1cc(C(C)NC(=O)c2cnc3onc(C)c3c2)c(C)o1` (centres undefined), the cytotoxicity at 70.5 h is -5.78%. Consider `COC(=O)c1cccc(S(=O)(=O)NC(=O)CC2CCCC2)c1`, for which the cytotoxicity at 70.5 h was determined as 22.5%. The same measure for `CC(C)COCCCNC(=O)NC(C)c1ccc(-n2cncn2)cc1` (centres undefined): -3.59%. Consider `CC(C)C(Sc1ccccc1)C(=O)N(C)Cc1nnc2n1CCC2` (centres undefined), for which the cytotoxicity at 70.5 h came out at 25.6%. The same measure for `CN(C)CC1CN(Cc2cc(Cl)cc3cccnc23)CCO1` (centres undefined): -9.09%; for `CC(=O)c1cc(C(=O)NC2(c3ccc(Br)cc3)CC2)n(C)c1`: -3.42%; for `CN(C)CC1CN(Cc2c(Cl)ccc3cccnc23)CCO1` (centres undefined): -4.72%. With `Cc1ccc(CN(C)C)cc1NC(=O)C1CC1`, the cytotoxicity at 70.5 h was -9.96%. With `CCc1cnc(N2CCN(Cc3ccncc3)CC2)s1`, the cytotoxicity at 70.5 h is -3.17%. Turning to `COc1ccccc1CNCc1nn(-c2ccccc2)c2c1CCC2`, the cytotoxicity at 70.5 h turned out to be 0.28%.

As to `CC(=O)c1ccc(S(=O)(=O)N2CCC(c3n[nH]c(C)n3)CC2)cc1`, the cytotoxicity at 70.5 h stood at 24.3%.

On to `CS(=O)(=O)NCCCSCc1cccc2cccnc12`, for which the cytotoxicity at 70.5 h is -9.28%. With `Cc1ccc(C(=O)O)cc1NC(=O)C1CC=CC1`, the cytotoxicity at 70.5 h was 22.9%. The same measure for `Brc1ccc(C2(CNCc3cc[nH]c3)CCOCC2)cc1`: -0.56%. On to `N#CCCCn1nnnc1Cc1ccc(Br)cc1`, for which the cytotoxicity at 70.5 h is -13.9%. The same measure for `Cc1cc(C)n(C2CN(Cc3ccccn3)C2)n1`: -9.82%; for `COCc1noc(CCC(=O)c2ccc3c(c2)OCCO3)n1`: -19.1%. `Cc1csc(N2CCN(Cc3cnc4c(c3)c(C)nn4C)CC2)n1`: the cytotoxicity at 70.5 h was -24.9%. For the compound `Cc1cc(CN2CCN(Cc3cnc4c(c3)c(C)nn4C)CC2)on1`, the cytotoxicity at 70.5 h is -6.72%. With `Cn1cc(NC(=O)Nc2ccc3c(c2)OCO3)cn1` the figure was -8.14%; with `O=C(CCn1cncn1)NC1(c2cccc(Br)c2)CCC1`, -2.65%. On to `NS(=O)(=O)CCNC(=O)c1ccc(-c2ccc(F)cc2)cc1F`, for which the cytotoxicity at 70.5 h is -6.9%. `O=C(CCCn1cncn1)NC1(c2ccccc2)CCC1`: the cytotoxicity at 70.5 h is -4.44%. With `CC(C)OCCOCc1cccc(NC(=O)NCc2ccccn2)c1` the figure was -8.39%; with `COc1ccc(-c2nc(CN3CC(n4nc(C)cc4C)C3)no2)cc1`, -5.57%; with `N#Cc1ccc(CNCC(C(=O)N2CCOCC2)c2ccccc2)cc1` (centres undefined), -3%. In the case of `CN(C(=O)c1cccc(C(=O)NS(C)(=O)=O)c1)c1ccccc1`, the cytotoxicity at 70.5 h is -8.09%. With `CC(C)C1CN(C(=O)c2ccc(N3CCCC3)nc2)CCS1` (centres undefined) the figure was -8.6%. On to `O=C(NC1(c2cccc(F)c2)CCOCC1)c1ccoc1`, for which the cytotoxicity at 70.5 h was -6.8%. The same measure for `COc1ccc(C(NCc2ccc(C#N)cc2)C2CC2)cc1` (centres undefined): -7.6%. With `COc1cccc(-c2c[nH]c(C3CCCN3)n2)c1` (centres undefined), the cytotoxicity at 70.5 h is -4.68%. With `COc1ccccc1-c1c[nH]c(C2CCCN2)n1` (centres undefined) the figure was -7.74%.
